Experimental data from patent publication US11814367B2, “Inhibitors of glycogen synthase 1 (GYS1) and methods of use thereof” (Maze Therapeutics, Inc., priority 2021, dated 2023).
pIC50: −log10 of the molar value.

Assays:
[1] = molecular target: hGYS2 enzyme (recombinant hGYS2/GN1 protein) (Homo sapiens (Human), UniProt P54840); assay: GYS2 coupled enzyme assay (PK/LDH); assay type: biochemical; settings: geometric mean of at least 2 assay runs on separate days, read-out: Avg_IC50
In short: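 Continuous PK/LDH-coupled readout of NADH loss at 340 nm over 10 min, with 200 nM hGYS2/GN1 and 2 mM each of UDP-glucose, glucose-6-phosphate and PEP, in 50 mM Tris pH 7.5 with 0.2% glycogen and 2.5% DMSO. Slopes were normalized to controls and IC50s fit to a Hill curve from duplicates.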

[2] = system: hGYS1 enzyme / glycogen synthesis in HeLa cells; assay: GYS1 cell based assay (glycogen synthesis, Glucose-glo); parameters: species or system human; settings: 24 h incubation, 20 mM glucose, geometric mean of at least 2 runs
In short: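 HeLa cells starved 24 h in medium containing only 1× Glutamax were plated onto compound in medium with 20 mM glucose (1% DMSO final) for 24 h, 37 °C, 5% CO2. Acid lysates were Tris-quenched, glucoamylase-digested (pH 5.3, 1 h, 37 °C) and read by Glucose-glo luminescence. IC50 came from Hill fits, as geometric mean of ≥2 runs.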

[3] = molecular target: hGYS1 enzyme (recombinant hGYS1/GN1 protein) (Homo sapiens (Human), UniProt P13807); assay: GYS1 coupled enzyme assay (PK/LDH); assay type: biochemical; settings: hGYS1/GN1 50 nM, UDP-Glucose 0.8 mM, G6P 1 mM; geometric mean of at least 2 runs
Sequence of hGYS1 enzyme (recombinant hGYS1/GN1 protein) (P13807 whole entry): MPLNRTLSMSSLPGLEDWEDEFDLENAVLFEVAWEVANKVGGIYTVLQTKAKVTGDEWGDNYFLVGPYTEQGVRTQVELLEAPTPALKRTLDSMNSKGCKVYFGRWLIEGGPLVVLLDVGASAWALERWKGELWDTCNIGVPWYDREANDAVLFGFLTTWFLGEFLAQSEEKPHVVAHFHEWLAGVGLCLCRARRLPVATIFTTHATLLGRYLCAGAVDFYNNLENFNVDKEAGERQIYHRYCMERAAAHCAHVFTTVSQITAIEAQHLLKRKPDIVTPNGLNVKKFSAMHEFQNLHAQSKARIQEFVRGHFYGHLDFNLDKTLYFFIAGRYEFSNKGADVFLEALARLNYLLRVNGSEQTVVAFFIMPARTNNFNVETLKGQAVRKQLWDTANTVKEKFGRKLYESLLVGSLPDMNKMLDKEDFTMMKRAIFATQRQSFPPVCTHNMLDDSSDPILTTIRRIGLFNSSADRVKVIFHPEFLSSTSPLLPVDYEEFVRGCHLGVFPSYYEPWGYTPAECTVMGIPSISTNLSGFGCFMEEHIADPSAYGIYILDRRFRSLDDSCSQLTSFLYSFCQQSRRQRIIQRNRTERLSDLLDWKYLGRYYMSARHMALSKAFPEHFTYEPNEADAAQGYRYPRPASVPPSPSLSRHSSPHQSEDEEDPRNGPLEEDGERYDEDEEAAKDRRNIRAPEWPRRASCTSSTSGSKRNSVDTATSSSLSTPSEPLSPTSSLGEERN
Sequence of hGYS1 enzyme (recombinant hGYS1/GN1 protein) (P46976 whole entry partner): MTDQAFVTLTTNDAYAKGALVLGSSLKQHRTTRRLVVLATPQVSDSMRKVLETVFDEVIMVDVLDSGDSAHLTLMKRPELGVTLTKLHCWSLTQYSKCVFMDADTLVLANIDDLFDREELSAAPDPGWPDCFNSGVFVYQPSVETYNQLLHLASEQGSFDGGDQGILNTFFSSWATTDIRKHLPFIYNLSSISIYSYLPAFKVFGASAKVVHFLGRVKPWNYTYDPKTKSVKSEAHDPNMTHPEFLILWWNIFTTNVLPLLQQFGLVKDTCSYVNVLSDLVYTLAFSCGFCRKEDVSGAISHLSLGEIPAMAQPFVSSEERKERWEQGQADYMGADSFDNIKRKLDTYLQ

Sequence of hGYS2 enzyme (recombinant hGYS2/GN1 protein) (P54840 whole entry): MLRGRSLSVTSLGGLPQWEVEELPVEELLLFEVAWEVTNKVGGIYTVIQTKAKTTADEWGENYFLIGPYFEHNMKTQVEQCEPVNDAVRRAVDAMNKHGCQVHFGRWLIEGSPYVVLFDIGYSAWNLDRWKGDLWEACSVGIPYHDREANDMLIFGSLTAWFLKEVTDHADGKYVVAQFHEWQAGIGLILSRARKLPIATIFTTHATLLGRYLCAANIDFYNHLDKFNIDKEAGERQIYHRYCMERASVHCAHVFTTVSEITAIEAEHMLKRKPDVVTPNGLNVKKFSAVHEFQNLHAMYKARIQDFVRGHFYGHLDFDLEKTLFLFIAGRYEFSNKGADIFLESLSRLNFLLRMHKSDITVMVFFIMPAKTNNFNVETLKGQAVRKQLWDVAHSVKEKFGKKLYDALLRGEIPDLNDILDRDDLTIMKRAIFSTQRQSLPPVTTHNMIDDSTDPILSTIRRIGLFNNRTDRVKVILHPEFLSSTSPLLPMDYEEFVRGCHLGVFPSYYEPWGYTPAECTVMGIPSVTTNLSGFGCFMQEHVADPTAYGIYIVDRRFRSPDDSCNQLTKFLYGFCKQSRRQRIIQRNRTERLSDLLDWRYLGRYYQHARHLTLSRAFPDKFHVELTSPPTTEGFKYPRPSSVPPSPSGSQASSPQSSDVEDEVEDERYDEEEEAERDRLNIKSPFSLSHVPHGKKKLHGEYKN
Sequence of hGYS2 enzyme (recombinant hGYS2/GN1 protein) (P46976 whole entry partner): as the sequence (P46976 whole entry partner) above

Compound | pIC50 [1] | pIC50 ([2]; Homo sapiens, HeLa, 24 h) | pIC50 [3] | pIC50 [2]
Cn1c(CC(=O)N2C[C@H](F)C[C@H]2C(=O)N[C@@H](c2ccccc2)c2ccc(C3(C)CC3)c(F)n2)cc2ccccc21 [Compound 591, (2S,4R)-4-fluoro-N-[(S)-[6-fluoro-5-(1-methylcyclopropyl)pyridin-2-yl](phenyl)methyl]-1-[2-(1-methyl-1H-indol-2-yl)acetyl]pyrrolidine-2-carboxamide] | < 4.00 | 6.51 | 7.49 | –
CC(C)c1ccc([C@@H](NC(=O)[C@@H]2C[C@@H](F)CN2C(=O)COC(=O)N2CCN(C(=O)OC(C)(C)C)CC2)c2ccccc2)cc1F [Compound 364, 1-tert-butyl 4-{2-[(2S,4R)-4-fluoro-2-{[(S)-[3-fluoro-4-(propan-2-yl)phenyl](phenyl)methyl]carbamoyl}pyrrolidin-1-yl]-2-oxoethyl} piperazine-1,4-dicarboxylate] | < 4.00 | 6.32 | 7.10 | –
CCn1ncc(N(C)CC(=O)N2C[C@H](F)C[C@H]2C(=O)N[C@@H](c2ccccc2)c2ccc(C3CC3)c(F)c2)n1 [Compound 474, (2S,4R)-N-[(S)-(4-cyclopropyl-3-fluorophenyl)(phenyl)methyl]-1-{2-[(2-ethyl-2H-1,2,3-triazol-4-yl)(methyl)amino]acetyl}-4-fluoropyrrolidine-2-carboxamide] | < 4.00 | 6.06 | 7.37 | –
CC1(c2ccc([C@@H](NC(=O)[C@@H]3C[C@@H](F)CN3C(=O)CNC(=O)N3CCOCC3)c3ccccc3)nc2F)CC1 [Compound 589, N-{2-[(2S,4R)-4-fluoro-2-{[(S)-[6-fluoro-5-(1-methylcyclopropyl)pyridin-2-yl](phenyl)methyl]carbamoyl}pyrrolidin-1-yl]-2-oxoethyl} morpholine-4-carboxamide] | < 4.00 | 5.85 | 7.00 | –
CC(C)c1ccc([C@@H](NC(=O)[C@@H]2C[C@@H](F)CN2C(=O)[C@H]2CNC(=O)O2)c2ccccc2)cc1F [Compound 382, (2S,4R)-4-fluoro-N-[(S)-[3-fluoro-4-(propan-2-yl)phenyl](phenyl)methyl]-1-[(5R)-2-oxo-1,3-oxazolidine-5-carbonyl]pyrrolidine-2-carboxamide] | < 4.00 | 6.28 | 7.47 | –
CC(C)c1c(F)cc([C@@H](NC(=O)[C@@H]2C[C@@H](F)CN2C(=O)Cn2cnnn2)c2ccccc2)cc1F [Compound 669, (2S,4R)-N-[(S)-[3,5-difluoro-4-(propan-2-yl)phenyl](phenyl)methyl]-4-fluoro-1-[2-(1H-1,2,3,4-tetrazol-1-yl)acetyl]pyrrolidine-2-carboxamide] | < 4.00 | 6.33 | 7.40 | –
O=C(NC(c1ccccc1)c1ccc(C2CCC2)c(F)c1)[C@@H]1C[C@@H](F)CN1C(=O)Cn1cnnn1 (single isomer, unassigned) [Compound 675, (2S,4R)-N-[(S) or (R)-(4-cyclobutyl-3-fluorophenyl) (phenyl)methyl]-4-fluoro-1-[2-(1H-1,2,3,4-tetrazol-1-yl)acetyl]pyrrolidine-2-carboxamide] | < 4.00 | 5.95 | 7.00 | –
O=C(N[C@@H](c1ccccc1)c1ccc(C2CC2)c(F)c1)[C@@H]1C[C@@H](F)CN1C(=O)Cn1cnnn1 [Compound 431, (2S,4R)-N-[(S)-(4-cyclopropyl-3-fluorophenyl)(phenyl)methyl]-4-fluoro-1-[2-(1H-1,2,3,4-tetrazol-1-yl)acetyl]pyrrolidine-2-carboxamide] | < 4.00 | 5.47 | 6.66 | –
CC1(c2ccc([C@@H](NC(=O)[C@@H]3C[C@@H](F)CN3C(=O)CN3Cc4ccccc4C3=O)c3ccccc3)cc2F)CC1 [Compound 573, (2S,4R)-4-fluoro-N-[(S)-[3-fluoro-4-(1-methylcyclopropyl)phenyl](phenyl)methyl]-1-[2-(1-oxo-2,3-dihydro-1H-isoindol-2-yl)acetyl]pyrrolidine-2-carboxamide] | < 4.00 | 5.78 | 6.75 | –
CC(C)(C)OC(=O)NCc1nnc(CC(=O)N2C[C@H](F)C[C@H]2C(=O)N[C@@H](c2ccccc2)c2ccc(C3CC3)c(F)c2)o1 [Compound 485, tert-butyl N-[(5-{2-[(2S,4R)-2-{[(S)-(4-cyclopropyl-3-fluorophenyl)(phenyl)methyl]carbamoyl}-4-fluoropyrrolidin-1-yl]-2-oxoethyl}-1,3,4-oxadiazol-2-yl)methyl]carbamate] | < 4.00 | 5.43 | 6.68 | –
CN(C)C(=O)NCC(=O)N1C[C@H](F)C[C@H]1C(=O)N[C@@H](c1ccccc1)c1ccc(C2CC(F)(F)C2)c(F)n1 [Compound 507, (2S,4R)-N-[(S)-[5-(3,3-difluorocyclobutyl)-6-fluoropyridin-2-yl](phenyl)methyl]-1-{2-[(dimethylcarbamoyl)amino]acetyl}-4-fluoropyrrolidine-2-carboxamide] | < 4.00 | 6.59 | 7.66 | –
CC(C)c1ccc([C@@H](NC(=O)[C@@H]2C[C@@H](F)CN2C(=O)Cn2cnc3ccccc32)c2ccccc2)cc1F [Compound 354, (2S,4R)-1-[2-(1H-1,3-benzodiazol-1-yl)acetyl]-4-fluoro-N-[(S)-[3-fluoro-4-(propan-2-yl)phenyl](phenyl)methyl] pyrrolidine-2-carboxamide] | < 4.00 | 7.22 | 8.30 | –
Cn1c(=O)n(CC(=O)N2C[C@H](F)C[C@H]2C(=O)N[C@@H](c2ccccc2)c2ccc(C3(C)CC3)c(F)n2)c2ccccc21 [Compound 600, (2S,4R)-4-fluoro-N-[(S)-[6-fluoro-5-(1-methylcyclopropyl)pyridin-2-yl](phenyl)methyl]-1-[2-(3-methyl-2-oxo-2,3-dihydro-1H-1,3-benzodiazol-1-yl)acetyl]pyrrolidine-2-carboxamide] | < 4.00 | 6.21 | 7.44 | –

Results, then the compound that gave them:

pIC50 [1] | pIC50 ([2]; Homo sapiens, HeLa, 24 h) | pIC50 [3] | pIC50 [2] | Compound
< 4.00 | < 4.52 | 6.27 | – | CC(C)c1ccc([C@@H](NC(=O)[C@@H]2C[C@@H](F)CN2C(=O)Cc2[nH]nnc2N2CCNCC2)c2ccccc2)cc1F [Compound 369, (2S,4R)-4-fluoro-N-[(S)-[3-fluoro-4-(propan-2-yl)phenyl](phenyl)methyl]-1-{2-[4-(piperazin-1-yl)-1H-1,2,3-triazol-5-yl]acetyl}pyrrolidine-2-carboxamide]
< 4.00 | 6.09 | 7.24 | – | Cc1nn(CC(=O)N2C[C@H](F)C[C@H]2C(=O)N[C@@H](c2ccccc2)c2ccc(C(C)C)cc2)c(=O)o1 [Compound 236, (2S,4R)-4-fluoro-1-[2-(5-methyl-2-oxo-2,3-dihydro-1,3,4-oxadiazol-3-yl)acetyl]-N-[(S)-phenyl[4-(propan-2-yl)phenyl]methyl]pyrrolidine-2-carboxamide]
< 4.00 | – | 6.91 | 5.92 | CC(C)c1ccc([C@@H](NC(=O)[C@@H]2C[C@@H](F)CN2C(=O)C(O)c2cnn[nH]2)c2ccccc2)cc1F (single isomer, unassigned) [Compound 773, (2S,4R)-4-fluoro-N -[(S)-[3-fluoro-4-(propan-2-yl)phenyl](phenyl)methyl]-1-[(2R) or (2S)-2-hydroxy-2-(1H-1,2,3-triazol-5-yl)acetyl]pyrrolidine-2-carboxamide]
< 4.00 | 5.64 | 6.63 | – | CC(C)c1ccc([C@@H](NC(=O)[C@@H]2[C@H]3C[C@H]3CN2C(=O)Cc2cnn[nH]2)c2ccccc2)nc1 [Compound 279, (1S,2S,5R)-N-[(S)-phenyl[5-(propan-2-yl)pyridin-2-yl]methyl]-3-[2-(1H-1,2,3-triazol-5-yl)acetyl]-3-azabicyclo[3.1.0]hexane-2-carboxamide]
< 4.00 | 5.99 | 7.57 | – | CC(C)c1ccc([C@@H](NC(=O)[C@@H]2C[C@@H](F)CN2C(=O)Cn2cnnc2)c2ccccc2)nc1F [Compound 390, (2S,4R)-4-fluoro-N-[(S)-[6-fluoro-5-(propan-2-yl)pyridin-2-yl](phenyl)methyl]-1-[2-(4H-1,2,4-triazol-4-yl)acetyl] pyrrolidine-2-carboxamide]
< 4.00 | 5.34 | 6.45 | – | CC(C)c1ccc([C@@H](NC(=O)[C@@H]2C[C@@H](F)CN2S(=O)(=O)Cc2cnn[nH]2)c2ccccc2)cc1F [Compound 772, (2S,4R)-4-fluoro-N-[(S)-[3-fluoro-4-(propan-2-yl)phenyl](phenyl)methyl]-1-[(1H-1,2,3-triazol-5-yl)methanesulfonyl] pyrrolidine-2-carboxamide]
< 4.00 | 6.55 | 8.05 | – | CC(C)c1ccc([C@@H](NC(=O)[C@@H]2C[C@@H](F)CN2C(=O)Cc2n[nH]c(=O)n2C)c2ccccc2)nc1F [Compound 398, (2S,4R)-4-fluoro-N-[(S)-[6-fluoro-5-(propan-2-yl)pyridin-2-yl](phenyl)methyl]-1-[2-(4-methyl-5-oxo-4,5-dihydro-1H-1,2,4-triazol-3-yl)acetyl] pyrrolidine-2-carboxamide]
